The source of these data is patent publication US9585391B2, “Pesticidal mixtures” (priority 2009, dated 2017).

Holding throughout (format): in vivo
One assay relates to cucumber cotyledons. Put plainly: growth (biomass) of cucumber cotyledons. As to conditions: for stimulation of the growth of the cotyledons: applied alone; for Mean cotyledon biomass: 4 days in the dark at 21.5° C.; for Observed efficacy: % biomass increase compared to the control. The procedure:
The effect of fluxapyroxad solo, dicamba solo and a mixture comprising both compounds on the growth (biomass) of cucumber cotyledons was evaluated. […] Subsequently, 20 to 30 cotyledons per treatment were cut and placed in a Petri dish containing 10 ml of the treatment solution as described below. Control cotyledons were treated with the 0.5% DMSO solution only. Following the incubation in the dark at 21.5° C. for 4 days the cotyledons were weight and the fresh biomass recorded (table 2). […] The efficacy of the tested active ingredients was calculated as % of biomass increase compared to the control: E=(a/b−1)·100 a corresponds to biomass of cotyledons after incubation in the treated plants in g; and b corresponds to biomass of cotyledons after incubation in the control in g. […] The expected efficacies of the combinations of the active ingredients were estimated using Colby's formula (Colby, S.

The subject of a further assay is wheat leaves. The experiment in a line: relative weight loss of detached wheat leaves (drought tolerance). As to conditions: for fresh weight loss: applied alone. The procedure: The relative weight loss of wheat leaves treated or not treated with fluxapyroxad, dicamba, and mixtures thereof as an indirect parameter for increased drought tolerance was assessed. Leaves of 10 to 14 days old wheat plants were detached and placed into Eppendorf caps containing 2.2 ml of the test solution as described below. The wheat leaves were incubated for 24 h at 25° C. and 50% relative humidity in a growth chamber. After incubation, the incubated leaves were removed from the solution and placed on filter paper in a growth chamber for 60 minutes (25° C., 50% rel. humidity). Fresh biomass of the leaves was assessed directly after incubation and in addition after 60 minutes. The difference in fresh weight was recorded as relative weight loss. The relative loss of fresh weight is calculated as: [formula] In the present example wheat plants of the variety ‘Monopol’ were grown at 18° C. for 10 days in the greenhouse prior to the treatment and the incubation. 10 plants per treatment were treated and incubated as described. Fluxapyroxad and dicamba were dissolved on 0.5% DMSO. Tested concentrations are described in table 4. Control plants were treated with the blank 0.5% DMSO solution only. The efficacy of the tested compounds and mixtures was calculated as % of relative weight loss compared to the control: […] The expected efficacies of the combinations of the compounds were estimated using Colby's formula (Colby, S.

The subject of a further assay is wheat plants. Put plainly: water loss through transpiration of cut wheat plants (drought tolerance). As to conditions: for transpiration (water loss): applied alone. The procedure:
The transpiration as an direct indicator of water stress of wheat plants treated or not treated with fluxapyroxad solo, dicamba solo, and respective mixtures thereof was assessed. 10 to 14 days old wheat plants were cut above the ground and placed into Eppendorf caps containing 2.2 ml of the test solution as described below. The wheat plants were incubated for 24 h at 25° C. and 50% relative humidity in a growth chamber. The weight of the Eppendorf cap including the test solution but excluding the plant was assessed before and after incubation. The difference in weight was recorded as the loss of water through transpiration. This assay was used to asses the drought tolerance of the plants. In the present example wheat plants of the variety ‘Monopol’ were grown at 18° C. for 10 days in the greenhouse prior to the treatment and the incubation. 10 plants per treatment were treated and incubated as described. Fluxapyroxad and dicamba were dissolved on 0.5% DMSO. The tested concentrations are described in table 3. Control plants were treated with the blank 0.5% DMSO solution only. The efficacy of the tested compounds and mixtures was calculated as % of water loss compared to the control; […] The expected efficacies of the combinations of the compounds were estimated using Colby's formula (Colby, S.

SMILES strings stand for the structures.

Consider `COc1c(Cl)ccc(Cl)c1C(=O)O` [Dicamba, dicamba], for which, in the assay on cucumber cotyledons, the “stimulation of the growth of the cotyledons” value is “no stimulation of the growth”. For the same molecule, in the assay on cucumber cotyledons (dicamba 1.25 ppm), the Mean cotyledon biomass is given as 48.2 mg. In addition, the Observed efficacy in the assay on cucumber cotyledons (dicamba 1.25 ppm) is 0.2%; in the assay with wheat leaves (dicamba 1.25 ppm), 10.69%; in the assay with wheat leaves (dicamba 12.5 ppm), 17.76%; in the assay with wheat plants (dicamba 1.25 ppm), −4.8%; in the assay on wheat plants (dicamba 12.5 ppm), −2.7%; with wheat plants (dicamba 125 ppm) it was 1.1%. Besides, the fresh weight loss entry with wheat leaves is “reduced fresh weight loss”. The “Mean relative weight loss” value with wheat leaves (dicamba 1.25 ppm) worked out at 17.09%; with wheat leaves (dicamba 12.5 ppm) it was 15.74%. The Mean water loss is recorded as 0.781 g in the assay on wheat plants (dicamba 1.25 ppm), 0.765 g in the assay on wheat plants (dicamba 12.5 ppm) and 0.737 g in the assay with wheat plants (dicamba 125 ppm). In the assay on wheat plants (lower concentrations), the “transpiration (water loss)” value is “increased transpiration”.

With `Cn1cc(C(=O)Nc2ccccc2-c2cc(F)c(F)c(F)c2)c(C(F)F)n1` [Fluxapyroxad, N-(3′,4′,5′-trifluorobiphenyl-2-yl)-3-difluoromethyl-1-methyl-1H-pyrazole-4-carboxamide], in the assay on cucumber cotyledons, the “stimulation of the growth of the cotyledons” value was “no stimulation of the growth”. The Mean cotyledon biomass in the assay on cucumber cotyledons (fluxapyroxad 5 ppm) was 47.1 mg. For the same molecule, the Observed efficacy is on record as −1.9% in the assay with cucumber cotyledons (fluxapyroxad 5 ppm); 7.94% with wheat leaves (fluxapyroxad 10 ppm, relative weight loss compared to the control); 28.89% with wheat leaves (fluxapyroxad 50 ppm); −42.4% in the assay with wheat plants (fluxapyroxad 10 ppm, water loss compared to the control); 11.5% with wheat plants (fluxapyroxad 50 ppm); 18.5% with wheat plants (fluxapyroxad 100 ppm). Also, in the assay on wheat leaves, the fresh weight loss entry is recorded as “reduced fresh weight loss”. Further, the “Mean relative weight loss” value in the assay on wheat leaves (fluxapyroxad 10 ppm, 24 h incubation, then 60 minutes on filter paper (25° C., 50% rel. humidity)) came out at 17.62%; in the assay with wheat leaves (fluxapyroxad 50 ppm), 13.61%. Also, the Mean water loss is 1.061 g in the assay with wheat plants (fluxapyroxad 10 ppm, 24 h at 25° C., 50% relative humidity); 0.660 g in the assay with wheat plants (fluxapyroxad 50 ppm); 0.607 g in the assay with wheat plants (fluxapyroxad 100 ppm). The “transpiration (water loss)” value is “decreased transpiration” with wheat plants (higher concentrations) and “increased transpiration” with wheat plants (lower concentrations).
